Reference: US8252749B2, “Methods, kits, and compositions for generating new hair follicles and growing hair” (Follica, Inc., priority 2006, dated 2012)
“Also recorded” adds a separate entry of the source.

Assays:
[1] = tested on: new HF formation by EDIHN in wounded skin; assay: whole-mount EDIHN assay after excisional wounding of mice; assay type: in vivo
Source text: Punch wound and excisional wound induction. The backs of 21-day-old mice were depilated as described for Example 1 and sterilized with alcohol, followed by 1% iodine solution. Punch wounds, 4 mm in diameter, were induced using a dermal biopsy punch, down to, but not through, the muscle fascia. Excisional wounds were full thickness and 1 cm in diameter; skin and panniculus carnosus was excised using fine surgical scissors.
Whole mounting and immunofluorescence. HF whole mounts were obtained by incubating fresh skin with EDTA (20 mM in PBS) at 37° C. overnight, then separating the epidermis and dermis. Epidermis was then fixed in 10% formalin for 10 min, room temperature (RT). Dermis was fixed in acetone overnight, RT. After rinsing with PBS, whole mounts were stained with antibodies for immunohistochemistry (schematically depicted in FIG. 12) and were imaged using a Leica confocal microscope.
21 day-old mice were wounded as described in previous Examples. Starting from day 11 after wounding, a time point corresponding to the point at which the wound had recently re-epithelialized, 10 mL of 1 mg/ml EGF was injected into the wound bed. EGF was injected once per day after this point for a total of 5 days. Three days later, the skin was collected, and whole-mount EDIHN assays were performed. […] In addition, whole mounts of control and treated skin were analyzed with anti-K17 antibody immunostaining. […] (FIGS. 25 C-D).
In an additional experiment, recombinant EGF (1 microgram (mcg)/microliter (mcl)) was injected at days 11, 13 and 15 after wounding. Skin was collected at 18 days after wounding and stained for K17 and alkaline phosphotase.
To determine the effect of administration of EGF receptor inhibitors on DIHN, the inhibitor AG1478 (150 μM in 10 μL volume) was administered as a single injection 11 days after incisional wounding (1 cm2) to the middle of the wound near the skin surface. […] Left panel: epidermis stained for K17, with three large hair follicles next to each other. Right panel: dermis stained for AP with large coalescing dermal papilla areas.

[2] = tested on: hair re-growth in abraded areas; assay: hair re-growth after epidermal abrasion of mice; assay type: in vivo; conditions: epidermis of mice abraded, then recombinant EGF administered
Source text: Depilation and epidermal abrasion. Mice were anesthetized with an injection of sodium pentobarbital before the hair on the back was clipped and depilated with Nair (Carter-Wallace, New York, N.Y.), then epidermis was removed using a rotating felt wheel as described by Argyris T, J. Invest. Dermatol. 75: 360 (1980). After scrubbing with 70% ethanol and drying under an incandescent lamp, the basal and supra-basal layers in an area of 1.5 cm^2/cm of the inter-follicular epidermis were removed by careful abrasion with a felt wheel mounted on a Dremel Moto-tool (Racine, Wis.). After abrasion, the skin was shiny and smooth, and there was no blood. One day later, the abraded area was covered by a fibrin crust, which fell off after 3-7 days, exposing the newly regenerated epidermis. A group of control mice was sacrificed immediately after abrasion to confirm microscopically the complete removal of the interfollicular epidermis.
Hair-bearing regions of the epidermis of mice is abraded, as described in Example 1, then administering recombinant EGF, as described in Example 1.

| Molecule | generation of hair follicles (number and size) compared with control mice that were wounded only ([1]; 150 μM in 10 μL, single injection 11 days after excisional wounding (1 cm diameter), middle of the wound) | HF formation as assessed by gross morphology ([1]; 21 day-old mice, 10 mL of 1 mg/ml EGF injected into wound bed once per day for 5 days from day 11 after wounding, skin collected three days later) | new HF formation, whole mounts with anti-K17 antibody immunostaining ([1]; 21 day-old mice, EGF injected into wound bed once per day for 5 days from day 11 after wounding, n=4 vs control n=2) | EDIHN, skin stained for K17 and alkaline phosphotase ([1]; recombinant EGF 1 mcg/mcl injected at days 11, 13 and 15 after wounding, skin collected at 18 days) | hair re-growth in the abraded areas [2] |
| --- | --- | --- | --- | --- | --- |
| COc1cc2ncnc(Nc3cccc(Cl)c3)c2cc1OC [AG1478, reference compound] | more and larger hair follicles; also recorded: more and larger HF | – | – | – | – |
| EGF: epidermal growth factor, recombinant, injected into the wound bed | – | prevented HF formation | no new HF formation; also recorded: inhibits HF formation | inhibited EDIHN | prevents hair re-growth |
